These results are taken from patent US4698339A, “Carbapenems, their production and use” (Takeda Chemical Industries, Ltd., priority 1983, dated 1987).

Converted amounts (≈) assume the structure as drawn.

The test system of data set [1] is Staphylococcus aureus FDA 209P. As to the kind of experiment: MIC by agar dilution method, Staphylococcus aureus FDA 209P. The data set is classed as cell-based. The settings on record: FDA209P, Trypticase soy agar, about 10^8 CFU/ml, 18 hours at 37° C., read-out: MIC (minimal inhibitory concentration). How it is done:
(§1) Several examples of the compound (I) as obtained in Examples were tested for MIC (mcg/ml) by the following method.
(§2) The MIC of each test compound was determined by the agar dilution method. Thus, 1.0 ml of each aqueous serial dilution of the test compound was poured into a petri dish and then […] of Trypticase soy agar was poured into the dish followed by intimate mixing. The mixed agar plate was smeared with the suspension of a test organism (about 10^8 CFU/ml).
(1) Staphylococcus aureus FDA 209P
Background: In agar dilution, organisms are placed on agar that contains the substance at set levels.

Another data set deals with Escherichia coli 0-111. As to the kind of experiment: MIC by agar dilution method, Escherichia coli 0-111. Format: cell-based. The settings on record: 0111, Trypticase soy agar, about 10^8 CFU/ml, 18 hours at 37° C., read-out: MIC (minimal inhibitory concentration). How it is done:
as §1, §2
(2) Escherichia coli 0-111

The subject of data set [2] is Citrobacter freundii IFO 12681. As to the kind of experiment: MIC by agar dilution method, Citrobacter freundii IFO 12681. The data set is classed as cell-based. As to conditions: IFO12681, Trypticase soy agar, about 10^8 CFU/ml, 18 hours at 37° C., read-out: MIC (minimal inhibitory concentration). How it is done: as §1, §2
(3) Citrobacter freundii IFO 12681

In another data set the test system is Klebsiella pneumoniae DT. As to the kind of experiment: MIC by agar dilution method, Klebsiella pneumoniae DT. The settings on record: Trypticase soy agar, about 10^8 CFU/ml, 18 hours at 37° C., read-out: MIC (minimal inhibitory concentration). The data set is classed as cell-based. As to the method:
as §1, §2
(4) Klebsiella pneumoniae DT

Data set [3] can be described thus: stability against a mouse kidney homogenate. Format: in vitro ADME. The settings on record: 0.05M phosphate buffer (pH 6.9), 30° C., test compound solution 1 mg/ml mixed 1:1, read-out: Half life (T1/2). As to the method:
Several examples of the objective compound (I) as obtained in Examples were tested for stability against a mouse Kidney homogenate by the following method.
A kidney homogenate was prepared by grinding down 50 g of the mouse kidney in 200 ml of cooled 0.05M phosphate buffer (pH 6.9) and stored at -20° C. A 200 μl portion of this mouse kidney homogenate and 200 μl of an aqueous solution of the test compound (1 mg/ml) were intimately mixed and kept at 30° C. At 10-minute intervals, a 25 μl portion of the mixture was taken and added to 25 μl of ice bath-cooled methanol to thereby terminate the reaction between renal enzymes and the test compound. The amount of the remaining test compound was determined by measuring the inhibitory action against β-lactamaseproduced by Proteus vulgaris GN4413 or Enterobacter cloacae TN1282 by the method described in Journal of Antibiotics, 34, 212-217 (1981).

On to `O=C(O)C1=C(Sc2ncccn2)C[C@@H]2[C@H](C3(O)CCS(=O)(=O)C3)C(=O)N12` (stereo partly drawn) [2 (b), sodium 5,6-cis-3-(2-pyrimidinylthio)-6-(1-hydroxy-3-thiacyclopentyl-3,3-dioxido)-7-oxo-1-azabicyclo[3.2.0]hept-2-ene-2-carboxylate], for which the MIC in data set [1] turned out to be 0.78 µg/mL; with Escherichia coli 0-111, 3.13 µg/mL; in data set [2], 6.25 µg/mL; in the data set on Klebsiella pneumoniae DT, 6.25 µg/mL. The half-life in data set [3] was more than 2 h.
As for `CC(=O)NCCSC1=C(C(=O)O)N2C(=O)[C@@H](C(O)CS(C)(=O)=O)[C@H]2C1` (stereo partly drawn) [12 (b), sodium 5,6-cis-3-(2-acetamidoethylthio)-6-(1-hydroxy-2-methylsulfonylethyl)-7-oxo-1-azabicyclo[3.2.0]hept-2-ene-2-carboxylate], the MIC in data set [1] is 1.56 µg/mL; in the data set on Escherichia coli 0-111, 0.39 µg/mL; in data set [2], 3.13 µg/mL; in the data set with Klebsiella pneumoniae DT, 1.56 µg/mL. The half-life in data set [3] is more than 2 h.
As for `CC(=O)N/C=C/SC1=C(C(=O)O)N2C(=O)[C@@H](C3(O)CCS(=O)(=O)C3)[C@H]2C1` (stereo partly drawn) [13 (b), sodium 5,6-cis-3-[(E)-2-acetamidovinylthio]-6-(1-hydroxy-3-thiacyclopentyl-3,3-dioxido)-7-oxo-1-azabicyclo[3.2.0]hept-2-ene-2-carboxylate], the MIC in data set [1] came to 1.56 µg/mL; with Escherichia coli 0-111, 0.39 µg/mL; in data set [2], 1.56 µg/mL; with Klebsiella pneumoniae DT it was 0.78 µg/mL. Further, the half-life in data set [3] was more than 2 h.
Take `CCS(=O)(=O)CC(O)C1C(=O)N2C(C(=O)O)=C(SCCNC(C)=O)CC12` (stereo not drawn) [15 (b)]: the MIC in data set [1] amounted to 6.25 µg/mL (≈ 15.4 µM); in the data set with Escherichia coli 0-111, 0.2 µg/mL (≈ 0.492 µM); in data set [2], 3.13 µg/mL (≈ 7.7 µM); with Klebsiella pneumoniae DT, 3.13 µg/mL (≈ 7.7 µM). For the same molecule, the half-life in data set [3] was more than 2 h.
As for `CC(=O)NCCSC1=C(C(=O)O)N2C(=O)C(C(O)CS(=O)(=O)c3ccccc3)C2C1` (stereo not drawn) [20 (b)], the MIC in data set [1] was 1.59 µg/mL (≈ 3.5 µM); in the data set with Escherichia coli 0-111 it was 0.39 µg/mL (≈ 0.858 µM); in data set [2], 1.56 µg/mL (≈ 3.43 µM); in the data set with Klebsiella pneumoniae DT it was 3.13 µg/mL (≈ 6.89 µM). Besides, in data set [3], the half-life is more than 2 h.
For `CC(=O)NCCSC1=C(C(=O)O)N2C(=O)[C@@H](C3(O)CCS(=O)(=O)C3)[C@H]2C1` (stereo partly drawn) [Example 1 (c), Sodium 5,6-cis-3-(2-acetamidoethylthio)-6-(1-hydroxy-3-thiacyclopentyl-3,3-dioxido)-7-oxo-1-azabicyclo-[3.2.0]hept-2-ene-2-carboxylate] the same measures were 3.13 µg/mL, 0.39 µg/mL, 3.13 µg/mL, 3.13 µg/mL and more than 2 h.
